Measured values published in patent US20050152857A1, “Method and preparation for reducing sunburn cell formation in skin” (PCR Technology Holdings, LC, priority 2004, published 2005).

Key:
[1] = tested on: sunburn cells in human skin; test: 2-week human sun burn cell assay study with glycolic acid compositions (Formulas 4-5, 1.5 MED solar simulator); assay type: in vivo; conditions: compared with normal, untreated skin, UV-exposed
Text: The idebenone-containing Formula 4 and the placebo Formula 5 of Example 3 were applied to human skin in a 2-week human sun burn cell assay study.
The panel composition was six different healthy adult volunteers between the ages of 18 and 53. All were in excellent health, and without any significant internal or dermatological diseases. The subjects were carefully screened to insure they were not taking any medications.
The subjects were given detailed instructions to avoid any direct exposure to sunlight and to minimize any incidental exposure to their backs for the entire duration of the study. […]
The light source used was a 150 watt xenon arc solar simulator equipped with a UV reflecting diachronic mirror and a 1 mm thick Schott WG-320 filter to produce simulation of the solar spectrum. […] Total irradiance at skin level was measured with a calibrated Eppley Thermopile and the UVB component was monitored with a UVB radiometer (International Light Inc, Newburyport, Mass.). […]
Two days prior to the end of the study, the MED (minimal erythema dose) for each subject was determined by exposing several normal untreated skin sites over the midback area to a series of exposures in 25% dose increments from the solar simulator. […] The MED was recorded in the appropriate case record form. […]

[2] = tested on: sensitivity of skin to UV light; conditions: cited from earlier work

| Structure (SMILES) | prevention of the increase in sun sensitivity / sunburn cell formation produced by 10 wt. % glycolic acid [1] | sensitivity of skin to UV light, sunburn cell induction ([2]; 10% glycolic acid (pH 3.5) once daily, 6 days per week, 4 weeks, 1.5 MED, 29 Caucasian subjects) | duration of photosensitivity after terminating treatments ([2]; 10% glycolic acid (pH 3.5), after 4 weeks of treatment) |
| --- | --- | --- | --- |
| COC1=C(OC)C(=O)C(CCCCCCCCCCO)=C(C)C1=O [idebenone, 6-(10-hydroxydecyl)-2,3-dimethoxy-5-methyl-1,4-benzoquinone] | prevented the increase in formation of sunburn cells | – | – |
| O=C(O)CO [glycolic acid] | – | enhanced sensitivity to UV light, including increased sunburn cell induction | reversed within a week of terminating treatments |
